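Assay format: 96-well plates, 48-hour exposure. At the GI50, growth is halved. TGI marks complete inhibition of growth.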
Experiments:
Test in all cases: NCI-60 cell line screen, 48 h
HL-60(TB) leukemia = tested on: HL-60(TB) leukemia
HOP-62 NSCLC = tested on: HOP-62 NSCLC
LOX IMVI melanoma = tested on: LOX IMVI melanoma
RXF 393 renal = tested on: RXF 393 renal
SN12C renal = tested on: SN12C renal
SNB-19 CNS = tested on: SNB-19 CNS
UACC-62 melanoma = tested on: UACC-62 melanoma
DU-145 prostate = tested on: DU-145 prostate
MDA-MB-435 = tested on: MDA-MB-435
MDA-N = tested on: MDA-N

SMILES	TGI (HL-60(TB) leukemia)	TGI (HOP-62 NSCLC)	TGI (LOX IMVI melanoma)	TGI (RXF 393 renal)	TGI (SN12C renal)	TGI (SNB-19 CNS)	TGI (UACC-62 melanoma)	TGI (DU-145 prostate)	TGI (MDA-MB-435)	TGI (MDA-N)	GI50 (DU-145 prostate)	GI50 (HL-60(TB) leukemia)	GI50 (HOP-62 NSCLC)	GI50 (LOX IMVI melanoma)	GI50 (MDA-MB-435)	GI50 (RXF 393 renal)	GI50 (SN12C renal)	GI50 (SNB-19 CNS)	GI50 (UACC-62 melanoma)
Cc1ccc2nc(N)[nH]c(=O)c2c1Sc1ccncc1	> 100 µM	> 100 µM	> 100 µM	> 100 µM	> 100 µM	> 100 µM	> 31.6 µM												
C=CCn1c(-c2cc(C(C)(C)C)c(O)c(C(C)(C)C)c2)cs/c1=N\C(P(=O)(O)O)P(=O)(O)O	> 100 µM	> 100 µM			> 100 µM	> 100 µM		> 100 µM	> 100 µM										
CCOC(=O)/C=C/n1c2ccccc2c(=O)c2cc(OC)ccc21	> 100 µM	> 100 µM	41.3 µM	> 100 µM	> 100 µM	> 100 µM	> 100 µM												
CCN(CC)CC1CCCCN1CC(=O)N1c2cc(Cl)ccc2NC(=O)CC1C (centres undefined)	> 100 µM	> 100 µM	> 100 µM		> 100 µM	> 100 µM	> 100 µM												
CC1(CO)C(O)CCC2(C)C1CCC1CC3CC12CCC3(O)CO (centres undefined)	> 100 µM		> 100 µM	> 100 µM	> 100 µM	> 100 µM	> 100 µM												
Cc1sc2c(c1C)C(=O)c1cccn1-2		> 100 µM	> 100 µM	> 100 µM	> 100 µM	> 100 µM	> 100 µM	> 100 µM	> 100 µM	> 100 µM									
c1ccc2c(c1)nnn2CNc1ccc(N2CCCCC2)cc1	> 100 µM	> 100 µM	> 100 µM	> 100 µM	> 100 µM	> 100 µM	> 100 µM												
CC(=O)Nc1ccc(-c2nnc(SCC(=O)Nc3cccc(C)c3)o2)cc1	> 100 µM	73.2 µM	15.6 µM	25.9 µM	28.5 µM		20.9 µM												
COc1cc(C2CC(C)(N3CCOCC3)Oc3cc4c(cc32)OCO4)cc(OC)c1OC (centres undefined)		> 100 µM	> 100 µM		> 100 µM	> 100 µM	> 100 µM	> 33.1 µM	> 100 µM	0.439 µM									
O=C1c2ccccc2N=C(c2cc3c(cc2Cl)Sc2nccn2S3(=O)=O)OS(=O)(=O)N1c1ccccc1	60.7 µM	76.2 µM	32 µM	84.7 µM	> 100 µM	> 100 µM	50.1 µM	> 100 µM	51.4 µM										
C1=N[C@]23C(=N[C@H](N=C2NCc2ccco2)[C@]24N=CNC2=N[C@H]3N=C4NCc2ccco2)N1	> 100 µM	> 100 µM	> 100 µM	> 100 µM	> 100 µM	> 100 µM	> 100 µM	> 100 µM	> 100 µM		> 100 µM	> 100 µM	> 100 µM	> 100 µM	> 100 µM	> 100 µM	> 100 µM	> 100 µM	> 100 µM
Cc1ccc(S(=O)(=O)NC(=O)C2S(=O)(=O)OCCOS2(=O)=O)cc1	> 100 µM	> 100 µM			> 100 µM	> 100 µM	> 100 µM												
